# According to BindingDB's records for doi:10.1021/jm980001q (G.D. Searle And, 1998):
# Target: T1, Glycylpeptide N-tetradecanoyltransferase (Candida albicans (strain SC5314 / ATCC MYA-2876), UniProt P30418)
# T1 sequence (P30418 whole entry): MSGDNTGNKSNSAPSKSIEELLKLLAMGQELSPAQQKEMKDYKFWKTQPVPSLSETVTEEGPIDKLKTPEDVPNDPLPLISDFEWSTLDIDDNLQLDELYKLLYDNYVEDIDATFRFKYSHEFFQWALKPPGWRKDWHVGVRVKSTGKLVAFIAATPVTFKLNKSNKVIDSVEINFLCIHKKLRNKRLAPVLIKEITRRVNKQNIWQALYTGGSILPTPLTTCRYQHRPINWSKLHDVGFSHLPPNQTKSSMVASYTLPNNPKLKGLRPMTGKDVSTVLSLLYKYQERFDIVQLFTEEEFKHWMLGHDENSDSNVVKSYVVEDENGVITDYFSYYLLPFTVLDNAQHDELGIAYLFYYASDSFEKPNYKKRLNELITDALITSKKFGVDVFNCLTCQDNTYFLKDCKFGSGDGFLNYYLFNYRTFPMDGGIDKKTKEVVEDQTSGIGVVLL
# Assay: The Compound was tested for the inhibition potency against Candida albicans N-myristoyltransferase (NMT) and reported as apparent Ki
substance,measurement,value
H-ALYASKLS-NH2,Ki,15.3 µM
